The source of these data is patent US20250230193A1, “CYCLIC COMPOUND HAVING SELECTIVE KRAS INHIBITORY EFFECT ON HRAS AND NRAS” (CHUGAI SEIYAKU KABUSHIKI KAISHA, priority 2022, published 2025).

The structures appear in SMILES notation. Where a SMILES comes first, the peptide text is derived from it. Bridges are numbered along the chain shown (N, C = ends). [ ]: non-standard residue; d: D form. The star is where a group is joined. hPhe(3-Cl-4-CF3) = N[C@@H](CCc1ccc(C(F)(F)F)c(Cl)c1)C(=O)O; NPrPhe(4-CF3) = CCCN[C@@H](Cc1ccc(C(F)(F)F)cc1)C(=O)O; hPhe(3,4-Cl2) = N[C@@H](CCc1ccc(Cl)c(Cl)c1)C(=O)O; NMeGly(cPent) = CN[C@H](C(=O)O)C1CCCC1; NMeD = CN[C@@H](CC(=O)O)C(=O)O; Ac4c(3-oxa) = NC1(C(=O)O)COC1; NMeL = CN[C@@H](CC(C)C)C(=O)O; Morpholide = C1CN(*)CCO1; NMeA = CN[C@@H](C)C(=O)O; Ac5c = NC1(C(=O)O)CCCC1; Aze = O=C(O)[C@@H]1CCN1; Sar = CNCC(=O)O

The target of assay [1] is GDP-bound HRAS wild-type protein (Homo sapiens, UniProt P01112). Description: Binding to HRAS by surface plasmon resonance (SPR), Single Cycle Kinetics. The note with it: for HRAS/KRAS (ratio of KD value with respect to HRAS to KD value with respect to KRAS) / HRAS/KRAS (ratio of KD value for HRAS to KD value for KRAS): GDP-bound HRAS wild-type vs GDP-bound KRAS wild-type. A general note: SPR reads the build-up and loss of mass on a sensor chip optically.
Chain of GDP-bound HRAS wild-type protein (P01112 whole entry): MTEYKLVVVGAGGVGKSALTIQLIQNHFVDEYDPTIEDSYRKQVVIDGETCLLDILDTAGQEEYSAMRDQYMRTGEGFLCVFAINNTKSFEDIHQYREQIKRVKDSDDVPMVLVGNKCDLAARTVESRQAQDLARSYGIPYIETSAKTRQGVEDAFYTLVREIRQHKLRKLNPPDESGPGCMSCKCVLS

The target of assay [2] is GDP-bound NRAS wild-type protein (Homo sapiens, UniProt P01111). Description: Binding to NRAS by surface plasmon resonance (SPR), Single Cycle Kinetics. The note with it: for NRAS/KRAS (ratio of KD value with respect to NRAS to KD value with respect to KRAS) / NRAS/KRAS (ratio of KD value for NRAS to KD value for KRAS): GDP-bound NRAS wild-type vs GDP-bound KRAS wild-type.
Chain of GDP-bound NRAS wild-type protein (P01111 whole entry): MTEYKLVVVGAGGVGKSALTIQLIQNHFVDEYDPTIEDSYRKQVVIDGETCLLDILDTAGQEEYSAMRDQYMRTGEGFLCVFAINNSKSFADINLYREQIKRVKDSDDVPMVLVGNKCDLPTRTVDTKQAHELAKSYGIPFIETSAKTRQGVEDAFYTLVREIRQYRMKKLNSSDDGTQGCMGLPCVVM

Regarding `CCC[C@H]1C(=O)N[C@@H]([C@@H](C)CC)C(=O)N(C2CC2)CC(=O)N(C)[C@H]2C/C=C\CCN(C2=O)[C@@H](CC2CCC(F)(F)CC2)C(=O)N(C)CC(=O)N[C@@H](CCc2ccc(C(F)(F)F)c(OC)c2)C(=O)N2C[C@@H](C)C[C@H]2C(=O)N(C)C2(CCC2)C(=O)N(C)[C@@H](C2CCCC2)C(=O)N(C)[C@H](C(=O)N(C)C)CC(=O)N1C` [PP2378], in assay [1] (SPR), the “HRAS/KRAS (ratio of KD value with respect to HRAS to KD value with respect to KRAS)” value was “A (a compound having 10 or more and less than 20 is denoted as A)”. Further, in assay [2] (SPR), the “NRAS/KRAS (ratio of KD value with respect to NRAS to KD value with respect to KRAS)” value was “B (a compound having 3 or more and less than 10 is denoted as B)”.

As for `CCC[C@H]1C(=O)N[C@@H]([C@@H](C)CC)C(=O)N(C)CC(=O)N(C)[C@H]2C/C=C\CCN(C2=O)[C@@H](Cc2ccc(C)cc2)C(=O)N(C)CC(=O)N[C@@H](CCc2cc(F)c(C(F)(F)F)c(F)c2)C(=O)N2CCC[C@H]2C(=O)N(C)C2(CCC2)C(=O)N(C)[C@@H](C2CCCC2)C(=O)N(C)[C@H](C(=O)N(C)C)CC(=O)N1C` [PP1794], the “HRAS/KRAS (ratio of KD value for HRAS to KD value for KRAS)” value in assay [1] (SPR) was “B (a compound having 3 or more and less than 10 is denoted as B)”. Besides, the “NRAS/KRAS (ratio of KD value for NRAS to KD value for KRAS)” value in assay [2] (SPR) is “A (a compound having 10 or more and less than 20 is denoted as A)”.

Take `CCCN1C(=O)CN(C)C(=O)CN(C)C(=O)[C@H]([C@@H](C)CC)NC(=O)[C@H](CC(C)C)N(C)C(=O)C[C@@H](C(=O)N2CCOCC2)N(C)C(=O)[C@H](C2CCCC2)N(C)C(=O)C2(COC2)NC(=O)[C@@H]2CCCN2C(=O)[C@H](CCc2ccc(C(F)(F)F)c(Cl)c2)NC(=O)CN(C)C(=O)[C@@H]1Cc1ccc(C(F)(F)F)cc1` [PP1922] ([NMeL]I[Sar][Sar][NPrPhe(4-CF3)][Sar][hPhe(3-Cl-4-CF3)]P[Ac4c(3-oxa)][NMeGly(cPent)][NMeD]-Morpholide; lactam N-11): the “HRAS/KRAS (ratio of KD value for HRAS to KD value for KRAS)” value in assay [1] (SPR) was “C (A compound having a KD ratio of 0.1 or more and less than 3 is denoted as C)”. Besides, the “NRAS/KRAS (ratio of KD value for NRAS to KD value for KRAS)” value in assay [2] (SPR) is “B (a compound having 3 or more and less than 10 is denoted as B)”.

Regarding `CCOC[C@H]1C(=O)N[C@@H]([C@@H](C)CC)C(=O)N(C)CC(=O)N(C)[C@H]2C/C=C\CCN(C2=O)[C@@H](CC2CCC(F)(F)CC2)C(=O)N(C)CC(=O)N[C@@H](CCc2ccc(C(F)(F)F)c(Cl)c2)C(=O)N2C[C@@H](C)C[C@H]2C(=O)NC2(CC(C)(C)C2)C(=O)N(C)[C@@H](C(CC)CC)C(=O)N(C)[C@H](C(=O)N(C)C)CC(=O)N1C` [PP2475], the “HRAS/KRAS (ratio of KD value with respect to HRAS to KD value with respect to KRAS)” value in assay [1] (SPR) was “A (a compound having 10 or more and less than 20 is denoted as A)”. Besides, in assay [2] (SPR), the “NRAS/KRAS (ratio of KD value with respect to NRAS to KD value with respect to KRAS)” value was “AA (a compound having 20 or more is denoted as AA)”.

Turning to `CCCN1C(=O)[C@@H]2CCN2C(=O)[C@H](C)N(C)C(=O)[C@H]([C@@H](C)CC)NC(=O)[C@H](CC(C)C)N(C)C(=O)C[C@@H](C(=O)N2CCOCC2)N(C)C(=O)[C@H](C2CCCC2)N(C)C(=O)C2(CCCC2)NC(=O)[C@@H]2CCCN2C(=O)[C@H](CCc2ccc(Cl)c(Cl)c2)NC(=O)CN(C)C(=O)[C@@H]1Cc1ccc(C(F)(F)F)cc1` [PP0227] ([NMeL]I[NMeA][Aze][NPrPhe(4-CF3)][Sar][hPhe(3,4-Cl2)]P[Ac5c][NMeGly(cPent)][NMeD]-Morpholide; lactam N-11), in assay [1] (KD ratio HRAS/KRAS, SPR), the “HRAS/KRAS (ratio of KD for GDP-bound HRAS wild-type to KD for KRAS)” value is “B (a compound having 3 or more and less than 10 is denoted as B)”. Further, the “NRAS/KRAS (ratio of KD for GDP-bound NRAS wild-type to KD for KRAS)” value in assay [2] (KD ratio NRAS/KRAS, SPR) is “C (A compound having a KD ratio of 0.1 or more and less than 3 is denoted as C)”.

Take `CCO[C@@H]1C[C@H]2C(=O)NC3(CC(C)(C)C3)C(=O)N(C)[C@@H](C(CC)CC)C(=O)N(C)[C@H](C(=O)N3CCCC3)CC(=O)N(C)[C@@H](COC)C(=O)N[C@@H]([C@@H](C)CC)C(=O)N(C)CC(=O)N(C)[C@H]3C/C=C\CCN(C3=O)[C@@H](Cc3ccc(C)cc3)C(=O)N(C)CC(=O)N[C@@H](CCc3ccc(C(F)(F)F)c(Cl)c3)C(=O)N2C1` [PP2144]: the “HRAS/KRAS (ratio of KD value with respect to HRAS to KD value with respect to KRAS)” value in assay [1] (SPR) is “A (a compound having 10 or more and less than 20 is denoted as A)”. The “NRAS/KRAS (ratio of KD value with respect to NRAS to KD value with respect to KRAS)” value in assay [2] (SPR) is reported as “AA (a compound having 20 or more is denoted as AA)”.

As to `CCC[C@H]1C(=O)N[C@@H]([C@@H](C)CC)C(=O)N(C)CC(=O)N(C)[C@H]2C/C=C\CCN(C2=O)[C@@H](Cc2ccc(C)cc2)C(=O)N(C)CC(=O)N[C@@H](CCc2cc(Cl)c3c(ccn3C)c2)C(=O)N2C[C@H](OCC)C[C@H]2C(=O)NC2(CC(C)(C)C2)C(=O)N(C)[C@@H](C(CC)CC)C(=O)N(C)[C@H](C(=O)N(C)C)CC(=O)N1C` [PP2898], the “HRAS/KRAS (ratio of KD value with respect to GDP-bound HRAS wild-type protein to KD value with respect to KRAS)” value in assay [1] (KD ratio HRAS/KRAS, class symbols) is “A (a compound having 10 or more and less than 20 is denoted as A)”. Also, in assay [2] (KD ratio NRAS/KRAS, class symbols), the “NRAS/KRAS (ratio of KD value with respect to GDP-bound NRAS wild-type protein to KD value with respect to KRAS)” value was “A (a compound having 10 or more and less than 20 is denoted as A)”.
